How the values were obtained:
[1] = system: human breast MCF-7/DOX^R carcinoma xenografts; test: Growth inhibition of human breast carcinoma (MCF-7/DOX^R) xenografts; format: in vivo; details: 10 mg/kg DOX equivalent i.v. days 0, 3 and 6
Protocol: Tumor volume was calculated using a formula, tumor volume=0.52×length×width×height. Dimensions were measured with an electronic digital caliper. Two to three weeks after inoculation (tumor volume 150-200 mm^3) in vivo antitumor studies were performed. Saline (control), free DOX, or DOX-loaded micelles in aqueous saline solution were injected intravenously through a tail vein by 1-3 bolus injections at three day intervals. The injection volume (approximately 0.1 mL/10 g body weight) of micelle preparation was adjusted to give 10 mg DOX/kg body weight. Five to eight mice per study were used. Tumor volume and body weight were monitored with elapsed time. A mean standard error was calculated for each experimental point.
For the preparation of doxorubicin-loaded micelles, doxorubicin.HCl (DOX.HCl, Sigma Chemical Co., St. Louis, Mo.) was desalted by stirring overnight in the presence of two molar equivalents of triethylamine (Sigma Chemical Co.) in DMSO (Sigma Chemical Co.). […] The amount of entrapped DOX was determined by measuring UV absorbance at 481 nm of the drug after dissolving micelles in DMSO. […]

A2780/DOX^R tumor = system: A2780/DOX^R tumor; design: species or system nude mice; details: mouse, in vivo, iv
Protocol: To directly explore the extent of drug extravasation from the blood vessels and accumulation of DOX in the tumor, the time-dependent fluorescence intensity of DOX in the tumor sight was measured using a non-invasive skin fold window chamber model, which allows real-time measurements. To investigate the in situ delivery of polymeric micelles to solid tumors, a non-invasive visualization method using a “dorsal skin-fold window chamber model” was used. M. R. Dreher et al., Tumor vascular permeability, accumulation, and penetration of macromolecular drug carriers, 98 J. Nat'l Cancer Inst. 335-344 (2006). To establish the window chamber model, S. Shan et al., A novel rodent mammary window of orthotic breast cancer for intravital microscopy, 65 Microvasc. Res. 109-117 (2003), a flap of skin measuring 1 cm in diameter was dissected away from opposing surfaces of the dorsal skin flap of an anesthetized mouse, leaving a facial plane with its associated vasculature. The flaps were held vertically away from the body with a titanium saddle, which was sutured to both sides of the flap. […] DOX was incorporated into the polymeric micellar core, and DOX fluorescence imaging was captured in the skin dorsal window. […] Observation was made using intravital fluorescence microscopy (Olympus BX51WI Microscope, Leeds Precision Instruments, Inc., Minnesota) over time.

MCF-7/DOX^R cells = test: MTT cytotoxicity against DOX-resistant MCF-7/DOX^R cells; details: 48 hrs incubation, pH 8.0-6.8
Protocol: DOX-resistant MCF-7 cells (MCF-7/DOX^R) were selected from MCF-7 cells (Korean Cell Line Bank (KCLB)) that were stepwise exposed at 0.001-10 mg/mL of free DOX. Here, cells were maintained in RPMI-1640 (Gibco, Uxbridge, UK) medium with 2 mM L-glutamine, 5% penicillin-streptomycin, and 10% fetal bovine serum in a humidified incubator 37° C. and 5% CO2 atmosphere.
For the cytotoxicity test of free DOX or drug-loaded polymeric micelles against sensitive MCF-7 or MCF-7/DOX^R cells, cells (5×10^4 cells/mL) growing as a monolayer, were seeded at 96-well dish in 200 mL of RPMI 1640 medium before 24 hrs. Free DOX or DOX loaded micelles in RPMI 1640 medium with pH 7.4 or 6.8 were prepared immediately before use as described above, added to medium-removed 96-well dish with different DOX concentration, and incubated for 48 hrs. Chemosensitivity was assessed using the tetrazolium salt MTT (Sigma Chemical Co.). Then, 100 mL of PBS pH 7.4 containing 20 mL of MTT (500 mg/L) solution was added to each well. The plates were incubated for an additional 4 hrs, and then 100 mL of DMSO was added to each well. The absorbance of each well was read on a microplate reader using a test wavelength of 570 nm and a reference wavelength 630 nm.

For `COc1cccc2c1C(=O)c1c(O)c3c(c(O)c1C2=O)C[C@@](O)(C(=O)CO)C[C@@H]3O[C@H]1C[C@H](N)[C@H](O)[C@H](C)O1` [free DOX, doxorubicin], the body weight change [1] was “more weight loss”, the “course of DOX fluorescence intensity in the tumor” value (A2780/DOX^R tumor) was “declined after 20 min and became dark at 60 min” and the “time at which DOX fluorescence intensity in tumor started to appear” value (A2780/DOX^R tumor) was at most 7 min. The “cytotoxicity against MCF-7/DOX^R cells” value (MCF-7/DOX^R cells) was “little reduced”.
